These results are taken from article PMC5218480 (PLoS ONE, 2017).

This assay deals with MV-4-11 cells. Put plainly: Gene expression microarray analysis (Affymetrix PrimeView) and GSEA. The format is cell-based, human. The arrangement: RFU PODN (11730768_x_at) / Fold change /veh PODN (11730768_x_at) / RFU LINC00158 (11744669_a_at) / Fold change /veh LINC00158 (11744669_a_at) / RFU DUSP10 (11751237_a_at) / Fold change /veh DUSP10 (11751237_a_at) / RFU ID3 (11757404_x_at) / Fold change /veh ID3 (11757404_x_at) / RFU PLEKHG5 (11737974_s_at) / Fold change /veh PLEKHG5 (11737974_s_at) / RFU LRRC4B (11730491_at) / Fold change /veh LRRC4B (11730491_at) / RFU GIMAP4 (11747438_a_at) / Fold change /veh GIMAP4 (11747438_a_at) / RFU KRT8 (11758183_x_at) / Fold change /veh KRT8 (11758183_x_at) / RFU CNN1 (11734310_a_at) / Fold change /veh CNN1 (11734310_a_at) / RFU VPS37D (11726825_at) / Fold change /veh VPS37D (11726825_at) / RFU C10orf10 (11716522_x_at) / Fold change /veh C10orf10 (11716522_x_at) / RFU KIR2DL2 /// KIR2DL4 /// KIR2DL5A /// KIR2DL5B /// KIR2DS1 /// KIR2DS2 /// KIR2DS3 /// KIR2DS4 /// KIR3DL3 /// KIR3DL3 /// KIR3DS1 (11738374_at) / Fold change /veh KIR2DL2 /// KIR2DL4 /// KIR2DL5A /// KIR2DL5B /// KIR2DS1 /// KIR2DS2 /// KIR2DS3 /// KIR2DS4 /// KIR3DL3 /// KIR3DL3 /// KIR3DS1 (11738374_at) / RFU C1QL1 (11718748_at) / Fold change /veh C1QL1 (11718748_at) / RFU TMPRSS4 (11747572_a_at) / Fold change /veh TMPRSS4 (11747572_a_at) / RFU HAMP (11756126_x_at) / Fold change /veh HAMP (11756126_x_at) / RFU RNFT2 (11725882_a_at) / Fold change /veh RNFT2 (11725882_a_at) / RFU NR4A2 (11747474_a_at) / Fold change /veh NR4A2 (11747474_a_at) / RFU ABCC12 (11746883_a_at) / Fold change /veh ABCC12 (11746883_a_at) / RFU TMEM136 (11760407_x_at) / Fold change /veh TMEM136 (11760407_x_at) / RFU CLDN22 /// WWC2 (11732394_at) / Fold change /veh CLDN22 /// WWC2 (11732394_at) / RFU HLA-DPB1 (11760878_x_at) / Fold change /veh HLA-DPB1 (11760878_x_at) / RFU SPINT1 (11716480_a_at) / Fold change /veh SPINT1 (11716480_a_at) / RFU GAP43 (11754022_s_at) / Fold change /veh GAP43 (11754022_s_at) / RFU A4GNT (11735810_at) / Fold change /veh A4GNT (11735810_at) / RFU PRB3 (11715151_x_at) / Fold change /veh PRB3 (11715151_x_at) / RFU TUBB4B (11761932_at) / Fold change /veh TUBB4B (11761932_at) / RFU CAPN14 (11732068_a_at) / Fold change /veh CAPN14 (11732068_a_at) / RFU TMCC2 (11721928_a_at) / Fold change /veh TMCC2 (11721928_a_at) / RFU IRGQ (11745062_a_at) / Fold change /veh IRGQ (11745062_a_at) / RFU FAM174B (11720279_a_at) / Fold change /veh FAM174B (11720279_a_at) / RFU TMPRSS4 (11748680_a_at) / Fold change /veh TMPRSS4 (11748680_a_at) / RFU FAM212B (11763350_a_at) / Fold change /veh FAM212B (11763350_a_at) / RFU PLEKHG5 (11743358_a_at) / Fold change /veh PLEKHG5 (11743358_a_at) / RFU ZSCAN30 (11745921_a_at) / Fold change /veh ZSCAN30 (11745921_a_at) / RFU CMKLR1 (11741424_a_at) / Fold change /veh CMKLR1 (11741424_a_at) / RFU LOC101060620 /// MAPK8IP1 (11723275_at) / Fold change /veh LOC101060620 /// MAPK8IP1 (11723275_at) / RFU SPTSSB (11747773_x_at) / Fold change /veh SPTSSB (11747773_x_at) / RFU PRSS12 (11739890_at) / Fold change /veh PRSS12 (11739890_at) / RFU BIN1 (11741810_x_at) / Fold change /veh BIN1 (11741810_x_at) / RFU WNT11 (11732464_a_at) / Fold change /veh WNT11 (11732464_a_at) / RFU C10orf10 (11716521_a_at) / Fold change /veh C10orf10 (11716521_a_at) / RFU C5orf56 (11738089_at) / Fold change /veh C5orf56 (11738089_at) / RFU CYB561 (11721691_x_at) / Fold change /veh CYB561 (11721691_x_at) / RFU ANKRD19P (11752326_a_at) / Fold change /veh ANKRD19P (11752326_a_at) / RFU OR2T12 /// OR2T33 /// OR2T8 (11738714_s_at) / Fold change /veh OR2T12 /// OR2T33 /// OR2T8 (11738714_s_at) / RFU VCAN (11748164_a_at) / Fold change /veh VCAN (11748164_a_at) / RFU JSRP1 (11732532_at) / Fold change /veh JSRP1 (11732532_at) / RFU KRTAP10-11 (11738290_x_at) / Fold change /veh KRTAP10-11 (11738290_x_at) / RFU MYO3A (11730013_a_at) / Fold change /veh MYO3A (11730013_a_at) / RFU EBF3 (11725865_a_at) / Fold change /veh EBF3 (11725865_a_at) / RFU CAMK2N1 (11719241_x_at) / Fold change /veh CAMK2N1 (11719241_x_at) / RFU C5orf56 (11738088_a_at) / Fold change /veh C5orf56 (11738088_a_at) / RFU OLFML3 (11715873_a_at) / Fold change /veh OLFML3 (11715873_a_at) / RFU LOC100653217 /// NTM (11731650_a_at) / Fold change /veh LOC100653217 /// NTM (11731650_a_at) / RFU MAPK11 (11762145_a_at) / Fold change /veh MAPK11 (11762145_a_at) / RFU FIZ1 (11724087_x_at) / Fold change /veh FIZ1 (11724087_x_at) / RFU OASL (11726364_x_at) / Fold change /veh OASL (11726364_x_at) / RFU SOX15 (11748057_x_at) / Fold change /veh SOX15 (11748057_x_at) / RFU CD79A (11719716_a_at) / Fold change /veh CD79A (11719716_a_at) / RFU HIST1H1D (11736915_at) / Fold change /veh HIST1H1D (11736915_at) / RFU CASKIN2 (11723855_a_at) / Fold change /veh CASKIN2 (11723855_a_at) / RFU LOC730098 (11760151_x_at) / Fold change /veh LOC730098 (11760151_x_at) / RFU OR4N2 (11742367_at) / Fold change /veh OR4N2 (11742367_at) / RFU PRRT2 (11749266_a_at) / Fold change /veh PRRT2 (11749266_a_at) / RFU SNX32 (11753110_a_at) / Fold change /veh SNX32 (11753110_a_at) / RFU CDHR5 (11726645_a_at) / Fold change /veh CDHR5 (11726645_a_at) / RFU RCAN1 (11760418_a_at) / Fold change /veh RCAN1 (11760418_a_at) / RFU FAM167A (11723789_a_at) / Fold change /veh FAM167A (11723789_a_at) / RFU FAM26E (11764081_at) / Fold change /veh FAM26E (11764081_at) / RFU ISYNA1 (11749810_s_at) / Fold change /veh ISYNA1 (11749810_s_at) / RFU ACY1 (11761880_at) / Fold change /veh ACY1 (11761880_at) / RFU 11764098_at / Fold change /veh 11764098_at / RFU SAMD14 (11745864_x_at) / Fold change /veh SAMD14 (11745864_x_at) / RFU NPB (11741838_a_at) / Fold change /veh NPB (11741838_a_at) / RFU TMPRSS6 (11731388_a_at) / Fold change /veh TMPRSS6 (11731388_a_at) / RFU KRTAP10-2 (11738614_at) / Fold change /veh KRTAP10-2 (11738614_at) / RFU ARHGAP8 /// PRR5-ARHGAP8 (11727945_x_at) / Fold change /veh ARHGAP8 /// PRR5-ARHGAP8 (11727945_x_at) / RFU KRTAP5-7 /// NADSYN1 (11734609_at) / Fold change /veh KRTAP5-7 /// NADSYN1 (11734609_at) / RFU RASL12 (11751679_a_at) / Fold change /veh RASL12 (11751679_a_at) / RFU CDKN2B (11736163_a_at) / Fold change /veh CDKN2B (11736163_a_at) / RFU PRF1 (11729649_at) / Fold change /veh PRF1 (11729649_at) / RFU, ZNF638 /// ZNF638-IT1 / Fold change vs veh, ZNF638 /// ZNF638-IT1 / RFU, PANK3 / Fold change vs veh, PANK3 / RFU, SH3YL1 / Fold change vs veh, SH3YL1 / RFU, ZEB2 / Fold change vs veh, ZEB2 / RFU, NRIP1 / Fold change vs veh, NRIP1 / RFU, PTTG1IP / Fold change vs veh, PTTG1IP / RFU, CAPN2 / Fold change vs veh, CAPN2 / RFU, MED14 / Fold change vs veh, MED14 / RFU, SNORA58 / Fold change vs veh, SNORA58 / RFU, C1orf63 / Fold change vs veh, C1orf63 / RFU, LRRFIP1 / Fold change vs veh, LRRFIP1 / RFU, NDUFAF7 / Fold change vs veh, NDUFAF7 / RFU, SLC12A2 / Fold change vs veh, SLC12A2 / RFU, IBTK / Fold change vs veh, IBTK / RFU, ESF1 / Fold change vs veh, ESF1 / Fold change vs veh, TMEM50B / RFU, TAOK1 / Fold change vs veh, TAOK1 / RFU, ACBD3 / Fold change vs veh, ACBD3 / RFU, TMA16 / Fold change vs veh, TMA16 / RFU, RWDD3 / Fold change vs veh, RWDD3 / RFU, BCAT1 / Fold change vs veh, BCAT1 / RFU, EDEM3 / Fold change vs veh, EDEM3 / RFU, TMEM33 / Fold change vs veh, TMEM33 / RFU, WDR75 / Fold change vs veh, WDR75 / RFU, AHCTF1 / Fold change vs veh, AHCTF1 / RFU, TFRC / Fold change vs veh, TFRC / RFU, ZDHHC17 / Fold change vs veh, ZDHHC17 / RFU, NOM1 / Fold change vs veh, NOM1 / RFU, ARL8B / Fold change vs veh, ARL8B / RFU, ZBTB11 / Fold change vs veh, ZBTB11 / RFU, TAMM41 / Fold change vs veh, TAMM41 / RFU, KIAA1704 /// LOC100996395 / Fold change vs veh, KIAA1704 /// LOC100996395 / RFU, ING1 / Fold change vs veh, ING1 / RFU, TRMT61B / Fold change vs veh, TRMT61B / RFU, FUBP3 / Fold change vs veh, FUBP3 / RFU, TP53 / Fold change vs veh, TP53 / RFU, TNKS2 / Fold change vs veh, TNKS2 / RFU, ZFP14 / Fold change vs veh, ZFP14 / RFU, ACTR2 / Fold change vs veh, ACTR2 / RFU, PPP3R1 / Fold change vs veh, PPP3R1 / RFU, PIK3R1 / Fold change vs veh, PIK3R1 / RFU, HNRNPA1 / Fold change vs veh, HNRNPA1 / RFU, RNF170 / Fold change vs veh, RNF170 / RFU, ZNF28 / Fold change vs veh, ZNF28 / RFU, RNGTT / Fold change vs veh, RNGTT / RFU, OGT / Fold change vs veh, OGT / RFU, BRD1 / Fold change vs veh, BRD1 / RFU, MARS / Fold change vs veh, MARS / RFU, ZNF655 / Fold change vs veh, ZNF655 / RFU, FAHD1 / Fold change vs veh, FAHD1 / RFU, BDP1 / Fold change vs veh, BDP1 / RFU, LRRCC1 / Fold change vs veh, LRRCC1 / RFU, ARID1A / Fold change vs veh, ARID1A / RFU, ZNF146 / Fold change vs veh, ZNF146 / RFU, ZNF330 / Fold change vs veh, ZNF330 / RFU, GPN3 / Fold change vs veh, GPN3 / RFU, C9orf123 / Fold change vs veh, C9orf123 / RFU, N4BP2L2 / Fold change vs veh, N4BP2L2 / RFU, ARFIP1 / Fold change vs veh, ARFIP1 / RFU, FAM179B / Fold change vs veh, FAM179B / RFU, BCL10 / Fold change vs veh, BCL10 / RFU, UHRF1BP1L / Fold change vs veh, UHRF1BP1L / RFU, BET1 / Fold change vs veh, BET1 / RFU, CNOT2 / Fold change vs veh, CNOT2 / RFU, ZNF268 / Fold change vs veh, ZNF268 / Fold change vs veh, ZNF507 / RFU, DGCR2 / Fold change vs veh, DGCR2 / RFU, WDSUB1 / Fold change vs veh, WDSUB1 / Fold change vs veh, HSP90B1 /// MIR3652 / RFU, ADSS / Fold change vs veh, ADSS / RFU, GK / Fold change vs veh, GK / RFU, ZNF148 / Fold change vs veh, ZNF148 / RFU, TAF9 / Fold change vs veh, TAF9 / RFU, SLC1A5 / Fold change vs veh, SLC1A5 / RFU, SLMO2 / Fold change vs veh, SLMO2 / RFU, ABCC4 / Fold change vs veh, ABCC4 / RFU, LOC101060439 /// RAP1B / Fold change vs veh, LOC101060439 /// RAP1B / RFU, RFX7 / Fold change vs veh, RFX7 / RFU, GTPBP10 / Fold change vs veh, GTPBP10 / RFU, CNEP1R1 / Fold change vs veh, CNEP1R1 / RFU, BIVM-ERCC5 /// ERCC5 / Fold change vs veh, BIVM-ERCC5 /// ERCC5 / RFU, ILF3 / Fold change vs veh, ILF3 / RFU 11762660_at / Fold change /veh 11762660_at / RFU VCAN (11757783_s_at) / Fold change /veh VCAN (11757783_s_at) / RFU DDX43 (11728927_at) / Fold change /veh DDX43 (11728927_at) / RFU KRT8 (11758188_x_at) / Fold change /veh KRT8 (11758188_x_at) / RFU NKD1 (11759106_at) / Fold change /veh NKD1 (11759106_at) / RFU SRD5A1 (11742802_a_at) / Fold change /veh SRD5A1 (11742802_a_at) / RFU TPSAB1 /// TPSB2 (11721975_s_at) / Fold change /veh TPSAB1 /// TPSB2 (11721975_s_at) / RFU GSTM3 (11746129_a_at) / Fold change /veh GSTM3 (11746129_a_at) / RFU IL23R (11737362_x_at) / Fold change /veh IL23R (11737362_x_at) / RFU TMEM51 (11727254_a_at) / Fold change /veh TMEM51 (11727254_a_at) / RFU PIWIL2 (11732686_x_at) / Fold change /veh PIWIL2 (11732686_x_at) / RFU ORM1 (11744905_x_at) / Fold change /veh ORM1 (11744905_x_at) / RFU CCDC152 (11743942_at) / Fold change /veh CCDC152 (11743942_at) / RFU ECM1 (11717891_a_at) / Fold change /veh ECM1 (11717891_a_at) / RFU IL23R (11748794_a_at) / Fold change /veh IL23R (11748794_a_at) / RFU TNFAIP8L3 (11732012_x_at) / Fold change /veh TNFAIP8L3 (11732012_x_at) / RFU MBOAT4 (11741988_at) / Fold change /veh MBOAT4 (11741988_at) / RFU 11764193_at / Fold change /veh 11764193_at / RFU TMEM53 (11763286_at) / Fold change /veh TMEM53 (11763286_at) / RFU MAGEB2 (11727129_at) / Fold change /veh MAGEB2 (11727129_at) / RFU TMEM200A (11744735_a_at) / Fold change /veh TMEM200A (11744735_a_at) / RFU CCDC152 (11751479_a_at) / Fold change /veh CCDC152 (11751479_a_at) / RFU FAM211A (11726209_a_at) / Fold change /veh FAM211A (11726209_a_at) / RFU RGS16 (11746705_a_at) / Fold change /veh RGS16 (11746705_a_at) / RFU VCAN (11755009_s_at) / Fold change /veh VCAN (11755009_s_at) / RFU RHOB (11743442_s_at) / Fold change /veh RHOB (11743442_s_at) / RFU RGS16 (11720943_a_at) / Fold change /veh RGS16 (11720943_a_at) / RFU RGS16 (11720944_at) / Fold change /veh RGS16 (11720944_at) / RFU, VPS4B / Fold change vs veh, VPS4B / RFU, CREB1 / Fold change vs veh, CREB1 / RFU, DNAJC13 / Fold change vs veh, DNAJC13 / RFU, GNAQ / Fold change vs veh, GNAQ / RFU, CDK5R1 / Fold change vs veh, CDK5R1 / RFU, ZRANB3 / Fold change vs veh, ZRANB3 / RFU, CUL4A / Fold change vs veh, CUL4A / RFU, CCNY / Fold change vs veh, CCNY / RFU, UFL1 / Fold change vs veh, UFL1 / RFU, COG3 / Fold change vs veh, COG3 / RFU, DIAPH2 / Fold change vs veh, DIAPH2 / RFU, SKA2 / Fold change vs veh, SKA2 / RFU, AFF3 / Fold change vs veh, AFF3 / RFU, LMF1 / Fold change vs veh, LMF1 / RFU, IPO11 / Fold change vs veh, IPO11 / RFU, DFFB / Fold change vs veh, DFFB / RFU, FOXP1 / Fold change vs veh, FOXP1 / RFU, CARD8 / Fold change vs veh, CARD8 / RFU, STRN3 / Fold change vs veh, STRN3 / RFU, ADK / Fold change vs veh, ADK / RFU, RASSF2 / Fold change vs veh, RASSF2 / RFU, WIPF1 / Fold change vs veh, WIPF1 / RFU, LARP1B / Fold change vs veh, LARP1B / RFU, RASA1 / Fold change vs veh, RASA1 / RFU, RB1 / Fold change vs veh, RB1 / RFU, PPFIA1 / Fold change vs veh, PPFIA1 / RFU, MAT2A / Fold change vs veh, MAT2A / RFU, CCT5 / Fold change vs veh, CCT5 / RFU, WDR92 / Fold change vs veh, WDR92 / RFU, CUX1 / Fold change vs veh, CUX1 / RFU, TTC7A / Fold change vs veh, TTC7A / RFU, TMEM135 / Fold change vs veh, TMEM135 / RFU, DEPTOR / Fold change vs veh, DEPTOR / RFU, CPM / Fold change vs veh, CPM / RFU, DNAJB6 / Fold change vs veh, DNAJB6 / RFU, CACNA2D3 / Fold change vs veh, CACNA2D3 / RFU, DTX4 / Fold change vs veh, DTX4 / RFU, TFCP2 / Fold change vs veh, TFCP2 / RFU, GMCL1 /// GMCL1P1 / Fold change vs veh, GMCL1 /// GMCL1P1 / RFU, AEBP2 / Fold change vs veh, AEBP2 / RFU, SNHG1 /// SNORD22 /// SNORD25 /// SNORD26 /// SNORD27 /// SNORD28 /// SNORD29 /// SNORD31 / Fold change vs veh, SNHG1 /// SNORD22 /// SNORD25 /// SNORD26 /// SNORD27 /// SNORD28 /// SNORD29 /// SNORD31 / Fold change (Aza/veh), C12orf56 (ProbeSet 11735607_a_at) / Fold change (ACY-1035/veh), C12orf56 (ProbeSet 11735607_a_at) / Fold change (Aza/veh), FGFR1OP (ProbeSet 11751329_s_at) / Fold change (ACY-1035/veh), FGFR1OP (ProbeSet 11751329_s_at) / Fold change (Aza/veh), VPS36 (ProbeSet 11739960_a_at) / Fold change (ACY-1035/veh), VPS36 (ProbeSet 11739960_a_at) / RFU SYPL1 (11715823_x_at) / Fold change /veh SYPL1 (11715823_x_at) / RFU IGFBP7 (11715501_s_at) / Fold change /veh IGFBP7 (11715501_s_at) / RFU REEP3 (11722064_at) / Fold change /veh REEP3 (11722064_at) / RFU IGLL1 (11728026_x_at) / Fold change /veh IGLL1 (11728026_x_at): dose or concentration left out as unconfirmed. As to conditions: ProbeSet 11724763_s_at; LIST D.

Take `Nc1ccc(-c2cccs2)cc1NC(=O)c1ccc2c(c1)cc(C1CC1)n2CCN1CCOCC1` [ACY-1035]: the “Fold change vs veh, DEPTOR” value came out at 0.84.
